Test results taken from patent US8501446B2 (Vertex Pharmaceuticals Incorporated, priority 2004, dated 2013).

Columns and labels:
Type in all cases: biochemical
[1] = target: T1, Aurora-C (Homo sapiens, UniProt Q9UQB9); assay: Aurora-C inhibition assay, coupled enzyme system as for Aurora-A; settings: average Ki if more than one value determined
T1 sequence (Q9UQB9 1-309): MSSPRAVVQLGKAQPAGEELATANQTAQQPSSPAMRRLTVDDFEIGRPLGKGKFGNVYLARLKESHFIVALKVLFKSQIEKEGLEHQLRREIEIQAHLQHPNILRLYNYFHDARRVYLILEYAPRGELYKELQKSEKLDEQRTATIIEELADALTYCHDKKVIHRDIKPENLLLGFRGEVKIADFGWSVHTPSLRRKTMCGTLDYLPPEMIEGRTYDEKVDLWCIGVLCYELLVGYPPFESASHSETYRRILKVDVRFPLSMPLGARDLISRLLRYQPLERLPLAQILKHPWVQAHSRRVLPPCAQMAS
Method: Compounds were screened for their ability to inhibit full length Aurora-A (AA 1-403) activity using a standard coupled enzyme system (Fox et al., Protein Sci. 7, pp. 2249 (1998)). Reactions were carried out in a solution containing 100 mM HEPES (pH 7.5), 10 mM MgCl2, 25 mM NaCl, 300 μM NADH, 1 mM DTT and 3% DMSO. Final substrate concentrations in the assay were 200 μM ATP (Sigma Chemicals, St Louis, Mo.) and 800 μM peptide (LRRASLG, American Peptide, Sunnyvale, Calif.). Reactions were carried out at 30° C. and 35 nM Aurora-A. Final concentrations of the components of the coupled enzyme system were 2.5 mM phosphoenolpyruvate, 200 μM NADH, 60 μg/ml pyruvate kinase and 20 μg/ml lactate dehydrogenase.
(§1) An assay stock buffer solution was prepared containing all of the reagents listed above with the exception of ATP and the test compound of interest. The assay stock buffer solution (60 μl) was incubated in a 96 well plate with 2 μl of the test compound of interest at final concentrations spanning 0.002 μM to 30 μM at 30° C. for 10 min. Typically, a 12 point titration was conducted by preparing serial dilutions (from 1 mM compound stocks) with DMSO of the test compounds in daughter plates. The reaction was initiated by the addition of 5 μl of ATP (final concentration 200 μM). Rates of reaction were obtained using a Molecular Devices Spectramax plate reader (Sunnyvale, Calif.) over 10 min at 30° C. The Ki values were determined from the rate data as a function of inhibitor concentration using computerized nonlinear regression (Prism 3.0, Graphpad Software, San Diego, Calif.). Aurora-C activity was screened in a similar manner using Aurora-C protein. Aurora-B activity was screened using a radioactive assay, such as described in Examples 1 and 2, but using Aurora-B protein.

[2] = target: T2, full length Aurora-A (AA 1-403) (Homo sapiens, UniProt O14965); assay: Aurora-A inhibition assay, standard coupled enzyme system; settings: average Ki if more than one value determined
T2 construct: full length Aurora-A (AA 1-403)
T2 sequence (O14965 1-403): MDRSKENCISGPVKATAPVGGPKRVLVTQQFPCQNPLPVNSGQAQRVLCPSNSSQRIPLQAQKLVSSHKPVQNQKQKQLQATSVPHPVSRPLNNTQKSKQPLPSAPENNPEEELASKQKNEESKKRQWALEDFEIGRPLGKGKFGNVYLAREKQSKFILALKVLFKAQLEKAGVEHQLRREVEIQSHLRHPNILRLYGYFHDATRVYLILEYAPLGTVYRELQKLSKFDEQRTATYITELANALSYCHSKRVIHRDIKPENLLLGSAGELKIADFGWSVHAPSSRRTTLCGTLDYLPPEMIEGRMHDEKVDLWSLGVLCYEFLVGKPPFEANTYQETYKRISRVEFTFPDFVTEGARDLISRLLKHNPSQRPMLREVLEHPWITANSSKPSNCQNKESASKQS

[3] = target: T3, ROCK I (AA 6-553) (Homo sapiens, UniProt Q13464); assay: ROCK inhibition assay, standard coupled enzyme system ("Enzyme"); settings: enzyme-linked assay
T3 construct: ROCK I (AA 6-553)
T3 sequence (Q13464 6-553, species assumed): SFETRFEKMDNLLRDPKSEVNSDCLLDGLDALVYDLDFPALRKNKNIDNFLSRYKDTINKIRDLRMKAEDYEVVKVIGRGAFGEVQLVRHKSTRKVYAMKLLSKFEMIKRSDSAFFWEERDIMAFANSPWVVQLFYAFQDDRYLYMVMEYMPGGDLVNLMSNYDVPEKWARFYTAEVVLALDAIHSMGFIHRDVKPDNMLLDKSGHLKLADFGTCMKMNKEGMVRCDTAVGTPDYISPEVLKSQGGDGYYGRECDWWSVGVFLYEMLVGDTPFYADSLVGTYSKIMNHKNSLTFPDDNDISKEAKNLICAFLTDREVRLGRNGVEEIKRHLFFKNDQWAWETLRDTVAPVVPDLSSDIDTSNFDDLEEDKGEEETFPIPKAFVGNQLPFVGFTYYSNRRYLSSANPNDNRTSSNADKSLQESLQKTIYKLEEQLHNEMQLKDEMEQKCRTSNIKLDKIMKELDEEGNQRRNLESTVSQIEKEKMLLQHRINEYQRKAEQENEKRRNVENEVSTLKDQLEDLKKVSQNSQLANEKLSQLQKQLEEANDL
Method in brief: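 ROCK I (AA 6-553) at 45 nM and 30 °C with 45 μM ATP and 200 μM peptide, in 100 mM HEPES pH 7.5, 10 mM MgCl2, 25 mM NaCl, 2 mM DTT, 1.5% DMSO. ADP output read by a PK/LDH coupled system: 2.5 mM PEP, 350 μM NADH, 30 μg/ml PK, 10 μg/ml LDH.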

[4] = target: Aurora-B (Homo sapiens, UniProt Q96GD4); assay: Aurora-B inhibition assay, radioactive assay; settings: average Ki if more than one value determined
Sequence of Aurora-B (Q96GD4 whole entry): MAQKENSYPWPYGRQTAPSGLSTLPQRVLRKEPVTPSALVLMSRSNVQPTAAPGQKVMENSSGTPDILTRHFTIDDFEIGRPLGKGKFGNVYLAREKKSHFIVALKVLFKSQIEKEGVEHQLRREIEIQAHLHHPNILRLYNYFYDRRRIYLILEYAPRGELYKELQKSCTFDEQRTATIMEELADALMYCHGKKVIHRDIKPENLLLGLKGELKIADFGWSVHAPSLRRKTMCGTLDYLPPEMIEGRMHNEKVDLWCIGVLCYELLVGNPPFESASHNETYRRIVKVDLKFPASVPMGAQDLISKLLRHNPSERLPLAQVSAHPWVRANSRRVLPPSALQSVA
Method: Compounds were screened for their ability to inhibit JAK3 using a standard radioactive enzyme assay. 1.5 μL/well of a DMSO stock containing serial dilutions of a compound of the present invention (concentrations ranging from 667 μM to 46 nM) was placed in a 96 well polycarbonate plate. 50 μL per well of kinase buffer (100 mM HEPES (pH 7.4), 10 mM MgCl2, 25 mM NaCl, 1 mM DTT, and 0.01% bovine serum albumin (BSA)) containing 2 μM poly(Glu)4Tyr and 10 μM ATP was also added to the plate. To initiate the reaction, 50 μL kinase buffer containing 2 nM JAK3 enzyme was added. Final ATP concentration was 5 μM [γ-^33P] ATP (200 μCi ^33P ATP/μmol ATP (Perkin Elmer, Cambridge, Mass.). After 20 minutes at room temperature (25° C.), the reaction was stopped by adding 50 μL 20% trichloroacetic acid (TCA)/0.4 mM ATP to each well. The entire content of each well was then transferred to a 96 well glass fiber filter plate using a TomTek Cell Harvester. After washing, 60 μL scintillation fluid was added and ^33P incorporation detected using a Perkin Elmer TopCount. After removing mean background values for all of the data points the data was fit using Prism software to obtain a Ki(app). Inhibition of JAK2 was measured as above except that final poly(Glu)4Tyr concentration was 15 μM and final ATP concentration was 12 μM.
Some compounds were screened for their ability to inhibit ROCK using a standard radioactive enzyme assay. Assays were carried out in a solution containing 100 mM HEPES (pH 7.5), 10 mM MgCl2, 25 mM NaCl, 2 mM DTT, and 1.5% DMSO. Final substrate concentrations in the assay were 13 μM [γ-^33P] ATP (25 mCi ^33P ATP/mmol ATP, Perkin Elmer, Cambridge, Mass./Sigma Chemicals, St Louis, Mo.) and 27 μM Myelin Basic Protein (MBP). Final enzyme concentration in the assay was 5 nM ROCK. Assays were carried out at room temperature. 1.5 μl of DMSO stock containing serial dilutions of the compound of the present invention (concentrations ranging from 10 μM to 2.6 nM) was placed in a 96 well plate. 50 μl of Solution 1 (100 mM HEPES (pH 7.5), 10 mM MgCl2, […]) was added to the plate. The reaction was initiated by addition of 50 μl of Solution 2 (100 mM HEPES (pH 7.5), 10 mM MgCl2, 4 mM DTT, […] and 10 nM ROCK). After 2 hours the reaction was quenched with 50 μL of 30% trichloroacetic acid (TCA, Fisher) containing 9 mM ATP. Transfer of 140 μL of the quenched reaction to a glass fiber filter plate (Corning, Cat. No. 3511) was followed by washing 3 times with 5% TCA. 50 μL of Optima Gold scintillation fluid (Perkin Elmer) was added and the plates were counted on a Top Count (Perkin Elmer). After removing mean background values for all of the data points the data was fit using Prism software to obtain a Ki(app).
as §1

[5] = target: JAK2 (Homo sapiens, UniProt O60674); assay: JAK2 inhibition assay (radioactive enzyme assay, as for JAK3); settings: average Ki if more than one value determined
Sequence of JAK2 (O60674 whole entry, species assumed): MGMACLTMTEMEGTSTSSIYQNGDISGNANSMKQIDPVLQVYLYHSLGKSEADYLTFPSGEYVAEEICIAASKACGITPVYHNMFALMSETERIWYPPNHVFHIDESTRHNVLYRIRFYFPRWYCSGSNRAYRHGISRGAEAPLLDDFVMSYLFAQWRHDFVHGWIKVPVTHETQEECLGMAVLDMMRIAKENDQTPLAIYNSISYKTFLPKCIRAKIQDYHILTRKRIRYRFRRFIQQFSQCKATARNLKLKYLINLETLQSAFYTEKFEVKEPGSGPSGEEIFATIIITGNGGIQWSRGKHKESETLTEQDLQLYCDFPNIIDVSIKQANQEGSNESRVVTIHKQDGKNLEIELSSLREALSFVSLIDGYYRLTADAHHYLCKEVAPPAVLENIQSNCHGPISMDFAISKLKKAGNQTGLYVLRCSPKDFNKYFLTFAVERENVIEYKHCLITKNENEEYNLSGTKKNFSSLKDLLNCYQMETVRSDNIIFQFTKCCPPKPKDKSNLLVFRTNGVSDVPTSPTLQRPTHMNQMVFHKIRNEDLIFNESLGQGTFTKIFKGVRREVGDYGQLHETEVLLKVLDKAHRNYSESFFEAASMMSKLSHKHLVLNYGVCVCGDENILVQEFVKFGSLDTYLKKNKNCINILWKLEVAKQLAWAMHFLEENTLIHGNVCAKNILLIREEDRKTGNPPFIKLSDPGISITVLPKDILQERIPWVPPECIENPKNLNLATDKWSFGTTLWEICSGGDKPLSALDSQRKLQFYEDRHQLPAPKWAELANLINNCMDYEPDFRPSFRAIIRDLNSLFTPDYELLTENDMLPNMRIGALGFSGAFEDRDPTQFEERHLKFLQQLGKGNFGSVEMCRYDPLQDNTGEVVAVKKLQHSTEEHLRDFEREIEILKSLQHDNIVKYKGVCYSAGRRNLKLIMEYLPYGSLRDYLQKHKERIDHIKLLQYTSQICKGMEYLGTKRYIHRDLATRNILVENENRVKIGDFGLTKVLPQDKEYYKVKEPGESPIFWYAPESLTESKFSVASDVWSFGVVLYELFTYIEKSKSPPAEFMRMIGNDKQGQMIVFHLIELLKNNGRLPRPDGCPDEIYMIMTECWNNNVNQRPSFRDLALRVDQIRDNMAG
Method in brief: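 Both kinases: poly(Glu)4Tyr substrate in 100 mM HEPES pH 7.4, 10 mM MgCl2, 1 mM DTT. Run 20 min at 25° C, TCA stop, filter-bound ³³P counted, Ki(app) fitted after background subtraction. JAK3: final [γ-³³P]ATP 5 μM, enzyme added as 2 nM solution. JAK2: final poly(Glu)4Tyr 15 μM, final ATP 12 μM.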

SMILES | Ki [1] [nM] | Ki [2] [nM] | Ki [3] [nM] | Ki [4] [nM] | Ki [5] [nM]
C[C@H](Nc1nc(-c2c[nH]c3ncc(Cl)cc23)ncc1F)c1cccc(NC(=O)OC(C)(C)C)c1 [Compound 331] | < 500 | < 500 | 500 to 5000 | – | –
C[C@H](Nc1cccc(-c2c[nH]c3ncc(Cl)cc23)n1)c1ccccc1 [Compound 252] | < 500 | < 500 | 500 to 5000 | – | –
C#Cc1cnc(-c2c[nH]c3ncc(Cl)cc23)nc1N[C@@H](C)C(=O)NCC(F)(F)F [Compound 411] | < 500 | < 500 | 500 to 5000 | – | –
C[C@H](Nc1nc(-c2c[nH]c3ncc(Cl)cc23)ncc1F)C(=O)NCCN1CCNC1=O [Compound 441] | – | 500 to 5000 | 500 to 5000 | 500 to 5000 | 500 to 5000
O=C(CNc1nc(-c2c[nH]c3ncc(Cl)cc23)ncc1F)NCC(F)(F)F [Compound 400] | < 500 | < 500 | 500 to 5000 | – | –
C[C@H](Nc1nc(-c2c[nH]c3ncc(Cl)cc23)ncc1F)C(=O)NCCCn1ccnc1 [Compound 442] | – | < 500 | 500 to 5000 | 500 to 5000 | 500 to 5000
COc1cnc(-c2c[nH]c3ncc(Cl)cc23)nc1N[C@@H](C)C(=O)NCC(F)(F)F [Compound 407] | < 500 | < 500 | 500 to 5000 | – | –
CNC(=O)[C@@H](Nc1nc(-c2c[nH]c3ncc(Cl)cc23)ncc1F)C(C)(C)C [Compound 385] | – | < 500 | 500 to 5000 | < 500 | –
Cc1cccc(C)c1Nc1nc(-c2c[nH]c3ncc(Cl)cc23)ncc1F [Compound 300] | – | < 500 | < 500 | < 500 | –
C[C@H](Nc1nc(-c2c[nH]c3ncc(Cl)cc23)ncc1C(F)(F)F)C(=O)NCC(F)(F)F [Compound 418] | – | < 500 | 500 to 5000 | < 500 | –
Clc1cnc2[nH]cc(-c3cccc(NC4CCCCCC4)n3)c2c1 [Compound 291] | – | < 500 | 500 to 5000 | 500 to 5000 | –
C[C@@H](C(=O)NCC(F)(F)F)N(C)c1nc(-c2c[nH]c3ncc(Cl)cc23)ncc1C(F)(F)F [Compound 424] | – | < 500 | 500 to 5000 | < 500 | –
C[C@H](Nc1nc(-c2c[nH]c3ncc(Cl)cc23)c(F)cc1C(=O)O)c1ccc(F)cc1 [Compound 397] | – | < 500 | 500 to 5000 | < 500 | –
C[C@H](Nc1nc(-c2c[nH]c3ncc(Cl)cc23)ncc1F)C(=O)NCCc1cccnc1 [Compound 449] | – | < 500 | 500 to 5000 | 500 to 5000 | –
CN(C)CC[C@H](Nc1nc(-c2c[nH]c3ncc(Cl)cc23)ncc1F)C(=O)N(C)C [Compound 456] | – | < 500 | 500 to 5000 | 500 to 5000 | –
C[C@H](Nc1cc(C(=O)N(C)C)nc(-c2c[nH]c3ncc(Cl)cc23)n1)c1ccc(F)cc1 [Compound 425] | – | < 500 | 500 to 5000 | < 500 | –
C[C@H](Nc1nc(-c2c[nH]c3ncc(Cl)cc23)ncc1F)C(=O)NCCc1ccccc1 [Compound 433] | – | 500 to 5000 | 500 to 5000 | 500 to 5000 | –
C[C@H](Nc1nc(-c2c[nH]c3ncc(Cl)cc23)ncc1F)C(=O)NCCc1cn(C)cn1 [Compound 434] | – | 500 to 5000 | 500 to 5000 | 500 to 5000 | –
O=C(CNc1nc(-c2c[nH]c3ncc(Cl)cc23)ncc1C(F)(F)F)NCC(F)(F)F [Compound 421] | – | < 500 | 500 to 5000 | 500 to 5000 | –
CNc1nc(-c2c[nH]c3ncc(Cl)cc23)nc(N[C@@H](C)C(=O)NCC(F)(F)F)c1C(C)C [Compound 432] | – | 500 to 5000 | 500 to 5000 | 500 to 5000 | –
C[C@H](Nc1cc(NCCO)nc(-c2c[nH]c3ncc(Cl)cc23)n1)C(=O)NCC(F)(F)F [Compound 417] | – | < 500 | 500 to 5000 | < 500 | –
C[C@@H](Nc1cccc(-c2c[nH]c3ncc(Cl)cc23)n1)c1ccccc1 [Compound 260] | < 500 | < 500 | 500 to 5000 | – | –
